In patent US20230277698A1, “SILICON-CONTAINING LIGAND COMPOUNDS” (Technische Universität München, priority 2020, published 2023):

Key:
[1] = system: LNCaP tumor-bearing CB17-SCID mice; assay: Biodistribution studies 24 h p.i.; format: in vivo; details: 177Lu-labelled, mean±SD, n=4-5
Protocol: All animal experiments were conducted in accordance with general animal welfare regulations in Germany (German animal protection act, as amended on 18 May 2018, Art. 141 G v. 29.3.2017|626, approval no. 55.2-1-54-2532-71-13) and the institutional guidelines for the care and use of animals. To establish tumor xenografts, LNCaP cells (approx. 10^7 cells) were suspended in 200 μL of a 1:1 mixture (v/v) of DMEM F-12 and Matrigel (BD Biosciences, Germany), and inoculated subcutaneously onto the right shoulder of 6-8 weeks old CB17-SCID mice (Charles River, Sulzfeld, Germany). Mice were used for experiments when tumors had grown to a diameter of 5-10 mm (3-6 weeks after inoculation).
Approximately 5-10 MBq (0.1-0.2 nmol) of the radioactive-labelled PSMA inhibitors were injected into the tail vein of LNCaP tumor-bearing male CB-17 SCID mice and sacrificed after 24 h post injection. Selected organs were removed, weighted and measured in a γ-counter.
FIG. 10 and the following table show the biodistribution data 24 h p.i. of ^177Lu-labeled compounds in LNCaP tumor-bearing CB17-SCID mice. Data are expressed as mean±SD (n=4-5).

[2] = biological target: human serum albumin (HSA) (Homo sapiens, UniProt P02768); assay: HSA binding by radio inversed affinity chromatography (RIAC); format: in vitro ADME; details: 177Lu-labelled; Superdex 75 Increase 10/300 GL, 700 μM HSA in PBS, 0.8 mL/min
Protocol: A gel filtration column Superdex 75 Increase 10/300 GL (GE Healthcare, Uppsala, Sweden) was beforehand calibrated following the producer's recommendations with a commercially available gel filtration calibration kit (GE Healthcare, Buckinghamshire, UK) comprising conalbumin (MW: 75 kDa), ovalbumin (44 kDa), carbonic anhydrase (29 kDa), ribonuclease A (13.7 kDa) and aprotinin (6.5 kDa) as reference proteins of known molecular weight. RIAC experiments were conducted using a constant flow rate of 0.8 mL/min at rt. A solution of HSA in PBS at physiological concentration (700 μM) was used as the mobile phase. PSMA ligands were labelled as described with molar activities of 10-20 GBq/μmol. Probes of 1.0 MBq of the radioligand were injected directly from the labelling solution. HSA binding was expressed as an apparent molecular weight MW calculated from the retention time of the radioligand using the determined calibration curve.
The following table summarizes the underlying data. MW: molecular weight. tR: experimentally determined retention time. V: elution volume. Kav: partition coefficient.
RIAC, in an inversed way, comprises ligand samples (radiolabeled PSMA ligands) and a protein (HSA) containing mobile phase. Ligand-specific retention is caused by interaction of the ligand probe and HSA in the mobile phase. Unbound species, due to a molecular weight beneath the molecular cut off of the gel filtration column, are maximally retained while bound species are eluted in accordance to the higher molecular weight of the ligand-HSA-complex (MWHSA: 66.47 kDa). Experiments show a single radiopeak indicating a dynamic process of formation and dissociation of the ligand-HSA-complex throughout the passage through the column bed. Accordingly, the absolute retention time is the result of the ligand's mean time of abidance at HSA which is directly defined by the ligand's binding kinetics and affinity toward HSA. For evaluation, experimentally determined retention times tR are first converted into elution volumes Ve by multiplying with the flow rate and thereafter converted into partition coefficients Kav following the equation
where V0 is the column void volume (8.027 mL) and Vc is the geometric column volume (24 mL). Using the equation given by the trend line plot of the column calibration
the apparent molecular weight MW is calculated as
FIG. 7 and the table below show the results HSA-binding of lutetium-complexed PSMA-ligands and reference compounds determined by RIAC on a Superdex 75 Increase 10/300 GL column 700 μM HSA in PBS as solvent using a constant flow rate of 0.8 mL/min (plotted data, extracted from FIG. 8).
FIG. 8 illustrates the determination of HSA binding via radio inverse affinity chromatography (RIAC). Correlation of apparent molecular weight (MW) in Dalton (Da) and retention time of ^177Lu-labeled samples, determined on a Superdex 75 Increase 10/300 GL with 700 μM HSA in PBS as solvent using a constant flow rate of 0.8 mL/min.

LNCaP cells = assay: Internalization studies on LNCaP cells; format: cell-based; details: 177Lu-labelled, c=1.0 nM, 1 hour, 37 °C; % of reference ligand ([125I]I-BA)KuE (c=0.2 nM); corrected for non-specific binding (PMPA); mean±SD, n=3-6
Protocol: PSMA-positive LNCAP cells (300265; Cell Lines Service, Eppelheim, Germany) were cultivated in Dulbecco modified Eagle medium/Nutrition Mixture F-12 with Glutamax (1:1) (DMEM-F12, Biochrom, Berlin, Germany) supplemented with fetal bovine serum (10%, FBS Zellkultur, Berlin, Germany) and kept at 37° C. in a humidified CO2 atmosphere (5%). A mixture of trypsin and EDTA (0.05%, 0.02%) in PBS (Biochrom) was used in order to harvest cells. Cells were counted with a Neubauer hemocytometer (Paul Marienfeld, Lauda-Königshofen, Germany).
For internalization studies, LNCaP cells were harvested 24±2 hours before the experiment and seeded in poly-L-lysine coated 24-well plates (1.25×10^5 cells in 1 mL/well, Greiner Bio-One, Kremsmünster, Austria). After removal of the culture medium, the cells were washed once with 500 μL DMEM-F12 (5% BSA) and left to equilibrate for at least 15 min at 37° C. in 200 μL DMEM-F12 (5% BSA). Each well was treated with either 25 μL of either DMEM-F12 (5% BSA, control) or 25 μL of a 100 μM PMPA (2-(Phosphonomethyl)-pentandioic acid, Tocris Bioscience, Bristol, UK) solution in PBS, for blockade. Next, 25 μL of the radioactive-labelled PSMA inhibitor (10.0 nM in PBS) was added and the cells were incubated at 37° C. for 60 min. The experiment was terminated by placing the 24-well plate on ice for 3 min and consecutive removal of the medium. Each well was carefully washed with 250 μL of ice-cold HBSS. Both fractions from the first steps, representing the amount of free radioligand, were combined. Removal of surface bound activity was accomplished by incubation of the cells with 250 μL of ice-cold PMPA (10 μM in PBS) solution for 5 min and rinsed again with another 250 μL of ice-cold PBS. The internalized activity was determined by incubation of the cells in 250 μL 1 M aqueous NaOH for at least 10 min. The obtained fractions were combined with those of the subsequent wash step with 250 μL 1 M aqueous NaOH. Each experiment (control and blockade) was performed in triplicate. Free, surface bound and internalized activity was quantified in a γ-counter. All internalization studies were accompanied by external reference studies, using ([^125I]l-BA)KuE (c=0.2 nM), which were performed analogously. Data were corrected for non-specific binding and normalized to the specific-internalization observed for the radioiodinated reference compound.
Data is corrected for non-specific binding (10 μmol PMPA) and expressed as mean±SD (n=3-6): […]

Chain of human serum albumin (HSA) (P02768 25-609): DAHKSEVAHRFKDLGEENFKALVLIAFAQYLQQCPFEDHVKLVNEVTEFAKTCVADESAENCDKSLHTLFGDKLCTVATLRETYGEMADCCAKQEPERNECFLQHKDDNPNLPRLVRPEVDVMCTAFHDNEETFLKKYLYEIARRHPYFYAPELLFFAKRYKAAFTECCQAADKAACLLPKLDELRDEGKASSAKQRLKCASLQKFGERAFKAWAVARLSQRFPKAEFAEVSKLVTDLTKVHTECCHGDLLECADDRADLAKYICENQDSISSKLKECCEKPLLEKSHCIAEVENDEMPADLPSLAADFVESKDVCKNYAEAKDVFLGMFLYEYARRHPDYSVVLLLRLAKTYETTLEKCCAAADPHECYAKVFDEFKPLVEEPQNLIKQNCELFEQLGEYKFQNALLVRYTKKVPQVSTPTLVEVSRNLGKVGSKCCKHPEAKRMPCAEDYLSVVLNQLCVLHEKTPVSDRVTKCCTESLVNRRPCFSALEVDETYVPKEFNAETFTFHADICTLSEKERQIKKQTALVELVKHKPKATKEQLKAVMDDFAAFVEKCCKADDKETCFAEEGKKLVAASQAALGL

For `O=C(O)CC[C@H](NC(=O)N[C@@H](CCCCNC(=O)CCCCCCC(=O)NCCCC[C@@H](NC(=O)[C@@H](Cc1ccccc1)NC(=O)[C@@H](Cc1ccc(O)c(I)c1)NC(=O)CCC(C(=O)O)N1CCN(CC(=O)O)CCN(CC(=O)O)CCN(CC(=O)O)CC1)C(=O)O)C(=O)O)C(=O)O` (stereo partly drawn) [PSMA I&T, reference compound], the “biodistribution: tumor” value ([1]; LNCaP xenograft) was 4.1 ± 1.1 % ID/g, the “biodistribution: blood” value ([1]; i.v. tail vein) was 0.012 ± 0.01 % ID/g and the “biodistribution: adrenals” value [1] was 1.06 ± 0.24 % ID/g. For the same compound, the “biodistribution: bone” value [1] was 0.01 ± 0.01 % ID/g, the “biodistribution: heart” value [1] was 0.05 ± 0.03 % ID/g and the “biodistribution: intestine” value [1] was 0.12 ± 0.06 % ID/g. The “biodistribution: kidneys” value [1] was 34.7 ± 17.2 % ID/g, the “biodistribution: liver” value [1] was 0.05 ± 0.01 % ID/g and the “biodistribution: lung” value [1] was 0.16 ± 0.03 % ID/g. The “biodistribution: muscle” value [1] was 0.01 ± 0.01 % ID/g, the “biodistribution: pancreas” value [1] was 0.05 ± 0.02 % ID/g and the “biodistribution: spleen” value [1] was 1.94 ± 1.01 % ID/g. For the same compound, the “biodistribution: stomach” value [1] was 0.05 ± 0.02 % ID/g, the “HSA-binding RIAC (apparent molecular weight)” value [2] was 5.3 kDa and the “Internalization (% IBA)” value (LNCaP cells) was 76 ± 2 % IBA.
